Measurements reported in US6780871B2, “Methods and compositions for treating addiction disorders” (Albany Medical College, priority 2001, dated 2004).

How the values were obtained:
NR1/2A receptors = target: T1, NR1/2A receptors (Rattus norvegicus, UniProt P35439+Q00959); test: whole-cell patch-clamp of transfected HEK293 cells, NR1/2A, 100 μM glutamate plus 10 μM glycine; assay type: cell-based
T1 construct: expressed in transfected cells; host or cells: HEK293 (ATCC CRL1573), transient transfection
T1 sequence (Q00959 20-1464 limits assumed, other chains not shown): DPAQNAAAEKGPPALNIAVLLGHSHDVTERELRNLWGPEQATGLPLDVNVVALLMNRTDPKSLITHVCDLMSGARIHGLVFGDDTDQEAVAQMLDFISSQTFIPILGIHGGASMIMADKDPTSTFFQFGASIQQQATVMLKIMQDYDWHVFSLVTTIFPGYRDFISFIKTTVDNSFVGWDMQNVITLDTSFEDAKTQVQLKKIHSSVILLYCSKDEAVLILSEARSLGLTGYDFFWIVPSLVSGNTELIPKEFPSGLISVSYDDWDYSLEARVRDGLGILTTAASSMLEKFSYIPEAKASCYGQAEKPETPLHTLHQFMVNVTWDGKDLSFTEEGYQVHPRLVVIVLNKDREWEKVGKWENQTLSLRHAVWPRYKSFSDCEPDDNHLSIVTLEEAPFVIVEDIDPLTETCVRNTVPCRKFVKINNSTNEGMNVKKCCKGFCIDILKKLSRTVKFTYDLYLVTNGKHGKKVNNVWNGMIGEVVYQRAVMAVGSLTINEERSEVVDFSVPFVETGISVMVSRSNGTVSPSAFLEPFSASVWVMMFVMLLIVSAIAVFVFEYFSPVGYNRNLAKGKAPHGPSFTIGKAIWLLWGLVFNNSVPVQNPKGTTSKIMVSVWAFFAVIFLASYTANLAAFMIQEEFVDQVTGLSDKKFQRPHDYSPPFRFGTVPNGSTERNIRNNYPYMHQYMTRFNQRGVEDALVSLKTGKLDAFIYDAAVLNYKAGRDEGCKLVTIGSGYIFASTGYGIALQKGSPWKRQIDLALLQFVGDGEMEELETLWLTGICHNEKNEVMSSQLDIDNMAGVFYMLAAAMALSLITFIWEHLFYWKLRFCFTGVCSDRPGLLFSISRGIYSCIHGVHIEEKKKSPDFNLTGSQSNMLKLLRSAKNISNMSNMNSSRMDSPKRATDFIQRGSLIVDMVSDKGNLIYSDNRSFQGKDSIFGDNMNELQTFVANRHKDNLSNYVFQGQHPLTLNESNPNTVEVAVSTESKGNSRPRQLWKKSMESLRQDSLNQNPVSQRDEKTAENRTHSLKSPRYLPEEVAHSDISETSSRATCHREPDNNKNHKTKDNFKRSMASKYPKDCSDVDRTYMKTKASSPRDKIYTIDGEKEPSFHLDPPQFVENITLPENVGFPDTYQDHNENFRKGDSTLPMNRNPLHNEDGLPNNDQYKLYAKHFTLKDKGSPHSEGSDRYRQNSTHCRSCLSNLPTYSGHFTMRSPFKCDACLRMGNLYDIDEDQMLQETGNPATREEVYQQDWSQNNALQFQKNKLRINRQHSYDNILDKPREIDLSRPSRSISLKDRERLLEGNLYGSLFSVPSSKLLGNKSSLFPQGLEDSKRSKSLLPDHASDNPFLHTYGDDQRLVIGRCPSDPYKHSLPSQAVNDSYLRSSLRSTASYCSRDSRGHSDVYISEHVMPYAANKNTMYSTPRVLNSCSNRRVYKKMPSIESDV
Procedure: Human embryonic kidney 293 (HEK293) fibroblasts (ATCC CRL1573) were cultured in minimal essential medium supplemented with 10% fetal bovine serum and 2 mM glutamine (Life Technologies, Rockville, Md.). Cells were plated on poly-D-lysine-coated 35 mm nunc dishes, transfected by the LipofectaminePLUS method (Life Technologies), and examined functionally between 18-48 h post transfection. The following receptor subunit cDNAs were used: nAChR-α3 (nicotinic acetylcholine receptor-α3; accession no. L31621), nAChR-α4 (accession no. L31620), nAChR-β2 (accession no. L31622), nAChR-β4 (accession no. U42976), 5-HT3R-A (5-HT3A receptor; accession no. M74425), NR1 (N-methyl-D-aspartate receptor 1; accession no. X63255), NR2A (accession no. X91561), and NR2B (accession no. M91562). The nAchR and NR clones were rat; the 5-HT3R-A clone was mouse. Co-transfection of enhanced green fluorescent protein (“EGFP”) (10% of total cDNA) provided a marker to identify transfected cells. Transfected cells were selected for EGFP expression and examined by voltage-clamp recording in the whole-cell configuration using an Axopatch 200B patch-clamp amplifier (Axon Instruments, Foster City, Calif.). Thin-walled borosilicate glass microelectrodes (TW150F, World Precision Instruments, Sarasota, Fla.) had resistances of 3-5 MΩ when filled with an internal solution containing (in mM): 135 CsCl, 10 CsF, 10 HEPES (N-[2-hydroxyethyl]piperazine-N′-[2-ethanesulfonic acid]), 5 EGTA (ethylene glycol-bis[β-aminoethyl ether]-N,N,N′,N′-tetraacetic acid), 1 MgCl2, 0.5 CaCl2, pH 7.2. Whole-cell capacitance and series resistance were recorded and adequately compensated using the available circuitry of the amplifier. Current responses were filtered at 1 kHz with an 8-pole Bessel filter (Cygnus Technologies, Delaware Water Gap, Pa.), digitized at 3 kHz, and stored on a Macintosh PowerPC-G3 computer using an ITC-16 interface (Instrutech, Great Neck, N.Y.) under control of the data acquisition and analysis program Synapse (Synergy Research, Gaithersburg, Md.). Cells were continuously superfused with extracellular solution containing (in mM): 150 NaCl, 3 KCl, 5 HEPES, 1 MgCl2, 1.8 CaCl2, 10 glucose, and 0.1 mg/ml phenol red, pH 7.3 (MgCl2 was omitted from all solutions used for the study of NMDA receptors). […] Control, agonist, and drug solutions were applied to individual cells by rapid perfusion. Solutions were driven by a syringe pump through a flowpipe having 4 inputs that converge at a single common output of approximately 100 μm diameter. Rapid switching between inputs was achieved using a set of upstream solenoid valves (Lee Co., Westbrook, Conn.) under computer control; the solution exchange rate was ˜5 ms as measured from liquid junction currents.
To study these, transfected HEK293 cells expressing NR1/2A or NR1/2B receptors were voltage-clamped to −70 mV and stimulated with 100 μM glutamate plus 10 μM glycine at 30 s intervals. […] In FIGS. 3A and 3B, open bars depict the timing of agonist application, filled bars depict the timing of co-application of 20 μM IBO or 20 μM 18MC, and inhibition was measured relative to control at the end of the drug application (indicated by arrows).

[1] = test system: morphine self-administration; test: intravenous morphine self-administration; assay type: in vivo, rat; details: 18-methoxycoronaridine 1 mg/kg i.p., dextromethorphan 5 mg/kg s.c.
Procedure: Dextromethorphan hydrobromide (5 mg/kg; Sigma/RBI, St. Louis, Mo.) was dissolved in saline and injected subcutaneously 20 minutes before testing. Mecamylamine hydrochloride (1 mg/kg; Sigma/RBI, St. Louis, Mo.) was dissolved in physiological saline and injected intraperitoneally 30 minutes before testing. All rats received two injections. For rats that received a single drug, half of them also received the appropriate saline/vehicle injection corresponding to each of the other two drugs.
Naive female Long-Evans derived rats (250 g; Charles River, N.Y.) were maintained on a normal 12 h light cycle (lights on at 7:00 a.m., lights off at 7:00 p.m.). For all experiments the “Principles of Laboratory Animal Care” (NIH publication No. 85-23, revised 1985, which is hereby incorporated by reference) were followed.
The intravenous self-administration procedure described in Glick et al., “18-MC Reduces Methamphetamine and Nicotine Self-administration in Rats,” NeuroReport 11:2013-2015 (2000) (“Glick I”), which is hereby incorporated by reference, was employed. Briefly, responses on either of two levers (mounted 15 cm apart on the front wall of each operant test cage) were recorded on an IBM compatible computer with a Med Associates, Inc. interface. The intravenous self-administration system consisted of polyethylene-silicone cannulas constructed according to the design of Weeks, “Long-term Intravenous Infusion,” pp. 155-168 in Myers (ed.), Methods in Psychobiology, Vol. 2, New York: Academic Press (1972) (“Weeks”), which is hereby incorporated by reference; Instech harnesses and swivels; and Harvard Apparatus infusion pumps (#55-2222). Shaping of the bar-press response was initially accomplished by training rats to bar-press for water. Cannulas were then implanted in the external jugular vein according to procedures described in Weeks, which is hereby incorporated by reference. Self-administration testing began with a 16-h nocturnal session followed by daily 1-h sessions, 5 days (Monday-Friday) a week. A lever-press response produced a 10 μl infusion of drug solution (0.01 mg of morphine sulfate) in about 0.2 s or a 50 μl infusion of drug solution (0.025 mg of methamphetamine sulfate) in about 1 s. Since all rats generally weighed 250±20 g, each response delivered approximately 0.04 mg/kg of morphine or 0.1 mg/kg of methamphetamine. Experiments to assess the effects of experimental treatments were begun when baseline self-administration rates stabilized (≦10% variation from one day to the next across 5 days), usually after 2 weeks of testing.
Each data point represents the mean (±S.E.M.) percent of baseline of 6-8 rats. Significant differences between baseline and treatment are indicated by an asterisk (paired t-test, P<0.01-0.001).
Each data point represents the mean (±S.E.M.) percent of baseline of 5-8 rats. Significant differences between baseline and treatment are indicated by an asterisk (paired t-test), P<0.05-0.01).

## COCC[C@H]1CC2CN3CCc4c([nH]c5ccccc45)[C@](C(=O)OC)(C2)[C@H]13 [18-methoxycoronaridine]
NR1/2A receptors; 20 μM drug alone
  response to drug applied alone (agonist activity): did not produce any response
NR1/2A receptors; concentrations up to 20 μM, N=3, FIG. 3A
  inhibition of agonist-evoked response: failed to inhibit
[1]; Example 5, FIG. 5: mecamylamine 1 mg/kg i.p., 6-8 rats
  effect on morphine self-administration (percent of baseline): none of the drugs administered alone, significantly decreased
[1]; Example 6, FIG. 8: mecamylamine 1 mg/kg i.p., bupropion 5 mg/kg i.p., 5-8 rats
  effect on morphine self-administration (percent of baseline): none of the drugs administered alone, significantly decreased
